Reference: patent US8846066B2, “Methods and related compositions for reduction of fat and skin tightening” (The Regents of the University of California, priority 2004, dated 2014)
Several values for one entry are separate records, joined by “and”; a condition that tells them apart may be missing. Equal values may be shown once.

What was measured:
A375M = experiment: Killing by DC after pre-incubation with human lipoma fat, A375M; assay type: cell-based
Experimental: (§1) The experiment was performed on a series of immortalized melanocyte cell lines. Resected human lipomas were ground up, and DC-containing media was mixed with the human fat and agitated for 24 hours. The material was centrifuged to pellet insoluble contents. The supernatants were then added on top of cultured melanocytes. Control was the identical DC-containing media not exposed to the fat chunks. Also, fat alone (no media) was added as a control.

SKmel28 = experiment: Killing by DC after pre-incubation with human lipoma fat, SKmel28; assay type: cell-based
Experimental: as §1

lipomas = experiment: Human lipoma study with sodium deoxycholate (Example 10); assay type: in vivo
Experimental: Six patients having 12 lipomas were injected with sodium deoxycholate (DC) solutions over a period of six months. […] Measurements were made by physical measurements and ultrasound imaging.

[1] = system: Melanocytes (A375P melanoma cell line); experiment: MTS survival of melanocytes after DC with or without 1% PC; assay type: cell-based; details: 30 min; for Melanocytes surviving in DC only: MTS OD 490 nm, single wells; for Average (DC only): mean MTS OD 490 nm
Experimental: Melanocytes in melanocyte media on a 96-well dish were differentiated at 37° C. in a humidified, 5% CO2 incubator for a week. Media was aspirated and washed with 1×PBS once. Cells were treated with different concentrations of DC (from 0 to 0.5%) with or without 1% PC in 1×PBS. Each treatment was done in triplicates (Table 4). The plates were incubated at 37° C. in a humidified, 5% CO2 incubator for 30 min. The incubated plates were aspirated and washed with 1×PBS.
10 mL of MTS (3-(4,5-dimethyl-2-yl)-5-(3-carboxymethoxyphenyl)-2-(4-sulfophenyl)-2H-tetrazolium, inner salt) assay solution was prepared (mixed 40 uL MTS (Promega, Madison Wis.) […]). 100 ul of MTS solution was added to each well of the plates. The plates were incubated at 37° C. incubator (non-hunified) for 120 min. OD was taken with spectrophotometer at 490 nm.
FIG. 7 illustrates the survival of melanocytes in sodium deoxycholate solution and sodium deoxycholate with 1% phosphatidylcholine solution. A375P is a melanoma cell line (P represents poorly metastatic). On y-axis, 1 represents 100% survival when no DC is added. All % concentrations are w/v %. […] The addition of sodium deoxycholate with 1% phosphatidylcholine solution increases the LD50 by ˜5-6 fold.

primary adipocytes = experiment: MTS survival of adipocytes after DC with or without 1% PC; assay type: cell-based, human; details: 30 min; for Adipocytes surviving in DC only: MTS OD 490 nm, single wells; for Average (DC only): mean MTS OD 490 nm
Experimental: Adipocytes in adipocyte media on a 96-well dish were differentiated at 37° C. in a humidified, 5% CO2 incubator for a week. Media was aspirated and washed with 1×PBS once. Cells were treated with different concentrations of DC (from 0 to 0.5%) with or without 1% PC in 1×PBS. Each treatment was done in triplicates (Table 5). The plates were incubated at 37° C. in a humidified, 5% CO2 incubator for 30 min. The incubated plates were aspirated and washed with 1×PBS.
10 mL of MTS (3-(4,5-dimethyl-2-yl)-5-(3-carboxymethoxyphenyl)-2-(4-sulfophenyl)-2H-tetrazolium, inner salt) assay solution was prepared (mixed 40 uL MTS (Promega, Madison Wis.) per 1 mL 1×PBS). 100 ul of MTS solution was added to each well of the plates. The plates were incubated at 37° C. incubator (non-humidified) for 120 min. OD was taken with spectrophotometer at 490 nm.
FIG. 8 illustrates the survival of adipocytes in sodium deoxycholate solution and sodium deoxycholate with 1% phosphatidylcholine solution. The adipocyte cells are primary (i.e., taken freshly from a person) adipocytes, cultured in vitro to maturity before treatment with DC. On y-axis, 1 represents 100% survival when no DC is added. All % concentrations are w/v %. […] The addition of sodium deoxycholate with 1% phosphatidylcholine solution increases the LD50 by ˜5-6 fold.

[2] = Control = 1.000, DC 0.1% media not exposed to fat
[3] = Control = 1.000, DC 0.1% media pre-incubated with human lipoma fat
[4] = DC 0.1% media not exposed to fat
[5] = single wells, DC 0.1% media not exposed to fat
[6] = single wells, supernatant of DC 0.1% media agitated 24 hours with human lipoma fat
[7] = supernatant of DC 0.1% media agitated 24 hours with human lipoma fat
[8] = Lipoma 1, pre-treatment size 1 cm, 1 treatment
[9] = Lipoma 4, pre-treatment size 4 × 3.5 cm, 4 treatments
[10] = Lipoma 5, pre-treatment size 2 × 1.8 cm, 4 treatments
[11] = Lipoma 6, pre-treatment size 2.8 cm, 1 treatment
[12] = Lipoma 7, pre-treatment size 3 × 2 cm, 2 treatments
[13] = Lipoma 8, pre-treatment size 1 cm, 2 treatments
[14] = Lipoma 10, pre-treatment size 2 cm, 2 treatments
[15] = Lipoma 12, pre-treatment size 1 cm, 1 treatment

C[C@H](CCC(=O)[O-])[C@H]1CC[C@H]2[C@@H]3CC[C@@H]4C[C@H](O)CC[C@]4(C)[C@H]3C[C@H](O)[C@]12C.[Na+] [DC, sodium deoxycholate]
Percentage, DC 0.1% (A375M; [2]): 0.106
Percentage, DC 0.1% + fat (A375M; [3]): 0.662
Average, DC 0.1% (A375M; [4]): 0.064
A375M (readings), DC 0.1% (A375M; [5]): 0.066 and 0.063
Actual, DC 0.1% (A375M; [5]): 0.066 and 0.063
A375M (readings), DC 0.1% + fat (A375M; [6]): 0.456 and 0.382 and 0.365
Actual, DC 0.1% + fat (A375M; [6]): 0.456 and 0.382 and 0.365
Average, DC 0.1% + fat (A375M; [7]): 0.401
Percentage, DC 0.1% (SKmel28; [2]): 0.098
Percentage, DC 0.1% + fat (SKmel28; [3]): 0.485
Average, DC 0.1% (SKmel28; [4]): 0.060
Actual, DC 0.1% (SKmel28; [5]): 0.061 and 0.060
SKmel28 (readings), DC 0.1% (SKmel28; [5]): 0.061 and 0.060
Actual, DC 0.1% + fat (SKmel28; [6]): 0.290 and 0.304 and 0.302
SKmel28 (readings), DC 0.1% + fat (SKmel28; [6]): 0.290 and 0.304 and 0.302
Average, DC 0.1% + fat (SKmel28; [7]): 0.299
Change in volume (%) (lipomas; [8]): −100%
Post-treatment size (lipomas; [8]): 0
Change in volume (%) (lipomas; Lipoma 3, pre-treatment size 2 × 2.5 cm, 3 treatments): 84%
Change in volume (%) (lipomas; [9]): 84%
Post-treatment size (lipomas; [9]): 2
Change in volume (%) (lipomas; [10]): 92%
Post-treatment size (lipomas; [10]): 1.3
Change in volume (%) (lipomas; [11]): 99%
Post-treatment size (lipomas; [11]): 0.5
Change in volume (%) (lipomas; [12]): 97%
Post-treatment size (lipomas; [12]): 0.8
Change in volume (%) (lipomas; [13]): 100%
Post-treatment size (lipomas; [13]): 0
Change in volume (%) (lipomas; Lipoma 9, pre-treatment size 2 × 1 cm, 2 treatments): 67%
Change in volume (%) (lipomas; [14]): 73%
Post-treatment size (lipomas; [14]): 1.3
Change in volume (%) (lipomas; Lipoma 11, pre-treatment size 2 cm, 1 treatment): 79%
Change in volume (%) (lipomas; [15]): 50%
Post-treatment size (lipomas; [15]): 0.8
size of injected lipomas (lipomas; six patients, 12 lipomas, after at least one treatment, six months): reduced in size
Melanocytes surviving in DC only ([1]; DC 0.001 (w/v %)): 0.158 and 0.148 and 0.16
Melanocytes surviving in DC only ([1]; DC 0.005 (w/v %)): 0.128 and 0.109 and 0.103
Melanocytes surviving in DC only ([1]; DC 0.01 (w/v %)): 0.124 and 0.107 and 0.106
Melanocytes surviving in DC only ([1]; DC 0.05 (w/v %)): 0.056 and 0.038 and 0.048
Melanocytes surviving in DC only ([1]; DC 0.1 (w/v %)): 0.009 and 0.014 and 0.016
Average (DC only) ([1]; DC 0.001 (w/v %)): 0.1553
Average (DC only) ([1]; DC 0.005 (w/v %)): 0.1133
Average (DC only) ([1]; DC 0.01 (w/v %)): 0.1123
Average (DC only) ([1]; DC 0.05 (w/v %)): 0.04733
Average (DC only) ([1]; DC 0.1 (w/v %)): 0.013
Average (DC only) ([1]; DC 0.5 (w/v %)): 0.004
LD50 (concentration at which 50% of the cells are dead) ([1]; melanocyte cell line, w/v %): around 0.04%
Adipocytes surviving in DC only (primary adipocytes; DC 0.01 (w/v %)): 0.067 and 0.133 and 0.13
Adipocytes surviving in DC only (primary adipocytes; DC 0.05 (w/v %)): 0.01 and 0.009 and 0.008
Adipocytes surviving in DC only (primary adipocytes; DC 0.1 (w/v %)): 0
Adipocytes surviving in DC only (primary adipocytes; DC 0.5 (w/v %)): 0
LD50 (concentration at which 50% of the fat cells are dead) (primary adipocytes; adipocytes, w/v %): around 0.02%
Average (DC only) (primary adipocytes; DC 0.005 (w/v %)): 0.111
Average (DC only) (primary adipocytes; DC 0.01 (w/v %)): 0.131
Average (DC only) (primary adipocytes; DC 0.05 (w/v %)): 0.09
Average (DC only) (primary adipocytes; DC 0.1 (w/v %)): 0
Average (DC only) (primary adipocytes; DC 0.5 (w/v %)): 0
